Measurements from publication PMC6429200, “Synthesis and Broad Antiviral Activity of Novel 2-aryl-isoindolin-1-ones towards Diverse Enterovirus A71 Clinical Isolates” (Molecules, 2019).
Read-outs that look alike come from different tables or passages of the source.

Key:
[1] = tested on: EV-A71 strain Jiangsu52 (JS52); test: CPE inhibition assay for anti-EV-A71 in Vero cells, Jiangsu52 strain; format: cell-based, Enterovirus 71 (EV-A71); settings: for Jiangsu52 SI: CC50/EC50; for EC50: Enterovirus A, EVA71, Vero cells, 100TCID50, 48 h
Experimental: (§1) An in-vitro antiviral assay was established using the Africa monkey kidney cell line Vero which was infected with different EV-A71 clinical isolates (BrCr, H, Shenzhen98 and Jiangsu52). A total of 24 synthetic compounds were initially screened in such an assay to determine their inhibitory effect on virus replication at 3-fold diluted concentrations serial (400~0.18 μM). The 50% effective concentration (EC50) of each compound was calculated according to its inhibitory rate values with the Reed–Muench method. The 50% cytotoxic concentration (CC50) was defined as the concentration that inhibited 50% cellular growth in comparison with the controls. The selectivity index (SI) was calculated as CC50/EC50. […] Generally, the EV-A71 H strain was less sensitive to most of the active compounds as compared to the other virus strains.
(§2) EV-A71 strain ShenZhen98 (SZ98) was isolated from the throat swab sample of an HFMD case which occurred in 1998 in China. This was kindly provided by Dr. Qi Jin, Institute of Pathogen Biology, Chinese Academy of Medical Science and Peking Union Medical School, Beijing, China. EV-A71 strains BrCr (VR-1775) and H (VR-1432) were purchased from the ATCC. The EV-A71 strain JS52 was a kind gift from Dr. Xiangzhong Ye, Beijing Wantai Biological Pharmacy Enterprise Co., Ltd. EV-A71 were all passaged in Vero cells.
(§3) The anti-EV-A71 activity of compounds was determined by the CPE inhibition method. Briefly, cells (3 × 10^4 cells/well) were plated into 96-well culture plates for incubation for 24 h. The medium was then removed and cells were infected with EV-A71 with 100TCID50 (50% tissue culture infective doses) in serum-free medium for 1 h at 37 °C. Then, the unbound viruses were removed and various concentrations of compounds were supplemented and incubated for another 48 h. The EC50 was determined by the Reed–Muench method. The selectivity index was calculated as the ratio of CC50/EC50 [15].

[2] = tested on: four EV-A71 strains (BrCr, H, Shenzhen98, Jiangsu52); test: CPE inhibition assay, summary over four EV-A71 strains; format: cell-based, Enterovirus 71 (EV-A71); settings: for EC50: Enterovirus A, EVA71, Vero, read-out: EC50 towards four EV-A71 strains
Experimental: as §1, §3

[3] = tested on: EV-A71 strain ShenZhen98 (SZ98); test: CPE inhibition assay for anti-EV-A71 in Vero cells, Shenzhen98 strain; format: cell-based, Enterovirus 71 (EV-A71); settings: for Shenzhen98 SI: CC50/EC50; for EC50: Enterovirus A, EVA71, Vero cells, 100TCID50, 48 h
Experimental: as §1, §2, §3

EV-A71 strain BrCr = test: CPE inhibition assay for anti-EV-A71 in Vero cells, BrCr strain; format: cell-based, Enterovirus 71 (EV-A71); settings: for BrCr SI: CC50/EC50; for EC50: Enterovirus A, EVA71, Vero cells, 100TCID50, 48 h
Experimental: as §1, §2, §3

EV-A71 strain H = test: CPE inhibition assay for anti-EV-A71 in Vero cells, H strain; format: cell-based, Enterovirus 71 (EV-A71); settings: for H SI: CC50/EC50; for EC50: Enterovirus A, EVA71, Vero cells, 100TCID50, 48 h
Experimental: as §1, §2, §3

[4] = Cytotoxicity assay (CPE) on Vero cells; format: cell-based; settings: African green monkey
Experimental: as §1
African green monkey kidney (Vero) cells were purchased from the American Type Culture Collection (ATCC) and were cultured in minimum essential medium (MEM) supplemented with 10% fetal bovine serum (FBS) (GIBCO) and antibiotics (100 U/mL penicillin and […] streptomycin) at 37 °C in a 5% CO2 incubator.
The cytotoxic effects of compounds on Vero cells were detected by the cytopathic effect (CPE) assay. Briefly, cells (3 × 10^4 cells/well) were seeded into 96-well culture plates and incubated overnight. Then, the medium was removed and different concentrations of compounds were applied in triplicate. After 3 days of incubation, the CC50 was defined as the concentration that inhibited 50% cellular growth in comparison with the untreated controls, as calculated by the Reed–Muench method.

EV71 = tested on: EV71; design: method as in PMID 23519203; settings: cited from earlier work
[5] = Vero cells, 3 days of incubation, Reed–Muench, read-out: CC50

Row | Structure (SMILES) | Jiangsu52 SI [1] | EC50 [1] | EC50 [2] | Shenzhen98 SI [3] | EC50 [3] | BrCr SI (EV-A71 strain BrCr) | EC50 (EV-A71 strain BrCr) | H SI (EV-A71 strain H) | EC50 (EV-A71 strain H) | CC50 at 3 days [4] | SI (EV71; Figure 1) | IC50 (EV71; Figure 1, multiple virus strains, read-out: Anti-EV71 IC50) | anti-EV-A71 activity (EV71; against multiple virus strains) | CC50 at 3 days [4, 5] | fold loss in activity ([2]; against four in vitro models, relative to A3) | SI towards four EV-A71 strains ([2]; CC50/EC50, range over four strains) | EC50 fold higher than pirodavir ([2]; relative to reference compound pirodavir)
1 | CN1CCN(c2ccc3c(c2)C(=O)N(c2ccc(Cl)cc2)C3)CC1 [Compound D3, 6-(4-methylpiperazin)-2-(4-chlorophenyl)-isoindolin-1-one] | 32 | 1.29 ± 0.33 µM | < 10 µM | 11 | 3.73 ± 0.78 µM | 16 | 2.71 ± 0.35 µM | 20 | 2.09 ± 0.54 µM | 42.4 ± 5.47 µM | – | – | – | – | – | – | –
2 | COc1ccc(C(=O)Nc2ccc(Br)cc2)cc1N [N-pheylbenzoamide hit, 3-amino-N-(4-bromophenyl)-4-methoxybenzamide] | – | – | – | – | – | – | – | – | – | – | 51-110 | 5.7 to 12 µM | moderate anti-EV-A71 activity | – | – | – | –
3 | CCOC(=O)c1ccc(OCCC2CCN(c3ccc(C)nn3)CC2)cc1 [pirodavir, reference compound] | 54 | 0.62 ± 0.1 µM | 0.38 to 0.76 µM | 67 | 0.5 ± 0.06 µM | 88 | 0.38 ± 0.04 µM | 44 | 0.76 ± 0.09 µM | – | – | – | – | 33.3 µM | – | – | –
4 | CCCNc1ccc2c(c1)C(=O)N(c1ccc(OC)cc1)C2 [Compound B1, 2-(4-methoxyphenyl)-6-(propylamino)isoindolin-1-one] | 43 | 1.59 ± 0.43 µM | < 10 µM | 43 | 1.59 ± 0.35 µM | 43 | 1.59 ± 0.35 µM | 13 | 5.41 ± 0.63 µM | – | – | – | – | 68.4 ± 5.72 µM | – | – | –
5 | COc1ccc(N2Cc3ccccc3C2=O)cc1 [Compound A7, 2-(4-methoxyphenyl)isoindolin-1-one] | 40 | 7.92 ± 0.86 µM | < 10 µM | 44 | 7.27 ± 0.86 µM | 44 | 7.27 ± 0.86 µM | 34 | 9.35 ± 1.44 µM | – | – | – | – | 318 ± 54.5 µM | – | – | –
6 | O=C1c2cc(Nc3ccccc3)ccc2CN1c1ccc(Cl)cc1 [Compound D2] | / (/ represents selectivity index (SI) value of less than 10) | 15.1 ± 3.23 µM | – | / (/ represents selectivity index (SI) value of less than 10) | 19.8 ± 3.4 µM | / (/ represents selectivity index (SI) value of less than 10) | 19.6 ± 3.77 µM | / (/ represents selectivity index (SI) value of less than 10) | 19.6 ± 3.77 µM | – | – | – | – | 115 µM | 10 fold | – | –
7 | O=C1c2cc(-c3ccccc3)ccc2CN1c1ccc(Cl)cc1 [Compound D1] | 2 | 56.5 ± 14.5 µM | – | / (/ represents selectivity index (SI) value of less than 10) | – | / (/ represents selectivity index (SI) value of less than 10) | – | / (/ represents selectivity index (SI) value of less than 10) | 66.7 µM | – | – | – | – | 115 µM | – | – | –
8 | O=C1c2ccccc2CN1c1ccc(F)cc1 [Compound A2, 2-(4-fluorophenyl)isoindolin-1-one] | 58 | 3.74 ± 0.8 µM | – | 49 | 4.43 ± 0.68 µM | 67 | 3.23 ± 0.25 µM | 49 | 4.43 ± 0.88 µM | – | – | – | – | 218 ± 22.3 µM | – | – | –
9 | Cc1ccc(N2Cc3cc(N)ccc3C2=O)cc1 [Compound 6, 5-amino-2-(p-tolyl)isoindolin-1-one] | 91 | 1.89 ± 0.32 µM | < 10 µM | 86 | 2 ± 0.25 µM | 91 | 1.89 ± 0.32 µM | 82 | 2.11 ± 0.23 µM | – | – | – | – | 173 ± 34 µM | – | – | –
10 | O=C1c2ccccc2CN1c1ccc(Cl)cc1Cl [Compound A5, 2-(2,4-dichlorophenyl)isoindolin-1-one] | 54 | 1.27 ± 0.01 µM | – | 49 | 1.39 ± 0.17 µM | 54 | 1.27 ± 0.01 µM | 38 | 1.81 ± 0.21 µM | – | – | – | – | 68.4 ± 5.72 µM | – | – | –
11 | O=C1c2ccccc2CN1c1ccc(-c2ccccc2)cc1 [Compound A6, 2-([1,1’-biphenyl]-4-yl)isoindolin-1-one] | / (/ represents selectivity index (SI) value of less than 10) | – | – | / (/ represents selectivity index (SI) value of less than 10) | – | / (/ represents selectivity index (SI) value of less than 10) | – | / (/ represents selectivity index (SI) value of less than 10) | – | – | – | – | – | 218 ± 22.3 µM | – | – | –
12 | CCC(=O)Nc1ccc2c(c1)CN(c1ccc(OC)cc1)C2=O [Compound C2, N-(2-(4-methoxyphenyl)-1-oxoisoindolin-5-yl)propionamide] | / (/ represents selectivity index (SI) value of less than 10) | – | – | / (/ represents selectivity index (SI) value of less than 10) | – | / (/ represents selectivity index (SI) value of less than 10) | – | / (/ represents selectivity index (SI) value of less than 10) | – | – | – | – | – | 231 µM | – | – | –
13 | O=C1c2ccccc2CN1c1ccc(Br)cc1 [Compound A4, 2-(4-bromophenyl)isoindolin-1-one] | 131 | 1.32 ± 0.22 µM | 1.23 to 1.76 µM | 98 | 1.76 ± 0.15 µM | 140 | 1.23 ± 0.28 µM | 98 | 1.76 ± 0.19 µM | – | – | – | – | 173 ± 34 µM | – | 98–199 | 2–4 fold
